Patent US20260022246A1, “COLORING AGENT COMPOSITION, FILM, OPTICAL FILTER, AND NEAR INFRARED ABSORBING COMPOUND” (FUJIFILM Corporation, priority 2023, published 2026)

Experiments:
Assay type in all cases: physicochemical
[1] = Evaluation of absorption spectrum (maximal absorption wavelength in chloroform solution); settings: for Near infrared absorbing property: grade of λmax in chloroform solution; for λmax (maximal absorption wavelength): chloroform solution, 3.0×10^−5 mol/L, 1 mm quartz cell
Protocol: The specific compound is diluted with chloroform to a concentration of […], and an absorbance of the obtained sample solution is measured with a spectrophotometer (UV-3600 Plus, manufactured by Shimadzu Corporation) using a 1 mm quartz cell. A maximal absorption wavelength (Amax) is measured from an absorption spectrum of the sample solution.
For each of Exemplary Compounds shown in Tables 1 and 2, a sample solution was prepared by diluting the compound with chloroform to a concentration of 3.0×10^−5 mol/L, and near infrared absorbability was evaluated.
For each sample solution, an absorbance was measured in a 1 mm quartz cell using a spectrophotometer (UV-3600 Plus, manufactured by Shimadzu Corporation).
A maximal absorption wavelength (Amax) was measured from the absorption spectrum of each sample solution. The results are shown in Tables 1 and 2, and the wavelength of Amax was evaluated according to the following standard.
• A: Amax was 1,150 nm or more. • B: Amax was less than 1,150 nm.

[2] = Evaluation of solubility in methyl ethyl ketone (MEK); settings: stirred at room temperature for 30 minutes
Protocol: For each of Exemplary Compounds shown in Tables 1 and 2, a predetermined amount of the compound was added to a solvent of methyl ethyl ketone (MEK), and solubility was evaluated according to the following standard by stirring the mixture at room temperature for 30 minutes.
• A: 1 g or more of the compound was stably dissolved in 300 g of MEK. • B: 1 g was not dissolved in 300 g of MEK. • X: decomposition was observed by measuring the absorption spectrum after the dissolution.

[3] = Evaluation of heat stability of polystyrene resin film (hot plate 180° C., 5 minutes); settings: polystyrene resin film on glass, hot plate 180° C. for 5 minutes, absorbance reduction rate at λmax
Protocol: 30 mg of each of Exemplary Compounds and the comparative compounds described in the tables was dissolved in 8.9 g of methyl ethyl ketone and 1.1 g of a polystyrene resin (manufactured by Sigma-Aldrich Co. LLC) to prepare a resin composition.
The obtained resin composition was spin-coated on a glass substrate to form a coating film, and the obtained coating film was dried at 60° C. for 2 minutes to produce a resin film. […]
• A: absorbance reduction rate of Amax was less than 5%. • B: absorbance reduction rate of Amax was 5% or more and less than 10%. • C: absorbance reduction rate of Amax was 10% or more and less than 50%. • D: absorbance reduction rate of Amax was 50% or more. • X: solubility was insufficient, so that the film cannot be produced, which was not evaluable.

Compound: Cc1ccc(N(c2ccc(C)cc2)c2ccc([N+](=C3C=CC(=[N+](c4ccc(N(c5ccc(C)cc5)c5ccc(C)cc5)cc4)c4ccc(N(c5ccc(C)cc5)c5ccc(C)cc5)cc4)C=C3)c3ccc(N(c4ccc(C)cc4)c4ccc(C)cc4)cc3)cc2)cc1 [A-1]
- Near infrared absorbing property [1]: A (Amax was 1,150 nm or more)
- Solubility in solvent [2]: A (1 g or more of the compound was stably dissolved in 300 g of MEK)
- Heat stability of resin composition [3]: A (absorbance reduction rate of Amax was less than 5%)

Compound: Cc1cc(C)c(N(c2ccc([N+](=C3C=CC(=[N+](c4ccc(N(c5c(C)cc(C)cc5C)c5c(C)cc(C)cc5C)cc4)c4ccc(N(c5c(C)cc(C)cc5C)c5c(C)cc(C)cc5C)cc4)C=C3)c3ccc(N(c4c(C)cc(C)cc4C)c4c(C)cc(C)cc4C)cc3)cc2)c2c(C)cc(C)cc2C)c(C)c1 [A-3]
- Near infrared absorbing property [1]: A (Amax was 1,150 nm or more)
- Solubility in solvent [2]: A (1 g or more of the compound was stably dissolved in 300 g of MEK)
- Heat stability of resin composition [3]: A (absorbance reduction rate of Amax was less than 5%)

Compound: COc1ccc(N(c2ccc(OC)cc2)c2ccc([N+](=C3C=CC(=[N+](c4ccc(N(c5ccc(OC)cc5)c5ccc(OC)cc5)cc4)c4ccc(N(c5ccc(OC)cc5)c5ccc(OC)cc5)cc4)C=C3)c3ccc(N(c4ccc(OC)cc4)c4ccc(OC)cc4)cc3)cc2)cc1.[O-][Cl+3]([O-])([O-])[O-].[O-][Cl+3]([O-])([O-])[O-] [A-6]
- λmax (maximal absorption wavelength) [1]: 1248 nm
- Near infrared absorbing property [1]: A (Amax was 1,150 nm or more)
- Solubility in solvent [2]: A (1 g or more of the compound was stably dissolved in 300 g of MEK)
- Heat stability of resin composition [3]: A (absorbance reduction rate of Amax was less than 5%)

Compound: FC(F)(F)c1ccc(N(c2ccc([N+](=C3C=CC(=[N+](c4ccc(N(c5ccc(C(F)(F)F)cc5)c5ccc(C(F)(F)F)cc5)cc4)c4ccc(N(c5ccc(C(F)(F)F)cc5)c5ccc(C(F)(F)F)cc5)cc4)C=C3)c3ccc(N(c4ccc(C(F)(F)F)cc4)c4ccc(C(F)(F)F)cc4)cc3)cc2)c2ccc(C(F)(F)F)cc2)cc1.[O-][Cl+3]([O-])([O-])[O-].[O-][Cl+3]([O-])([O-])[O-] [A-7]
- λmax (maximal absorption wavelength) [1]: 1162 nm
- Near infrared absorbing property [1]: A (Amax was 1,150 nm or more)
- Solubility in solvent [2]: A (1 g or more of the compound was stably dissolved in 300 g of MEK)
- Heat stability of resin composition [3]: A (absorbance reduction rate of Amax was less than 5%)

Compound: CCCCc1ccc(N(c2ccc(CCCC)cc2)c2ccc([N+](=C3C=CC(=[N+](c4ccc(N(c5ccc(CCCC)cc5)c5ccc(CCCC)cc5)cc4)c4ccc(N(c5ccc(CCCC)cc5)c5ccc(CCCC)cc5)cc4)C=C3)c3ccc(N(c4ccc(CCCC)cc4)c4ccc(CCCC)cc4)cc3)cc2)cc1.[O-][Cl+3]([O-])([O-])[O-].[O-][Cl+3]([O-])([O-])[O-] [A-8]
- λmax (maximal absorption wavelength) [1]: 1210 nm
- Near infrared absorbing property [1]: A (Amax was 1,150 nm or more)
- Solubility in solvent [2]: A (1 g or more of the compound was stably dissolved in 300 g of MEK)
- Heat stability of resin composition [3]: A (absorbance reduction rate of Amax was less than 5%)

Compound: N#Cc1ccc(N(c2ccc(C#N)cc2)c2ccc([N+](=C3C=CC(=[N+](c4ccc(N(c5ccc(C#N)cc5)c5ccc(C#N)cc5)cc4)c4ccc(N(c5ccc(C#N)cc5)c5ccc(C#N)cc5)cc4)C=C3)c3ccc(N(c4ccc(C#N)cc4)c4ccc(C#N)cc4)cc3)cc2)cc1.[O-][Cl+3]([O-])([O-])[O-].[O-][Cl+3]([O-])([O-])[O-] [A-9]
- λmax (maximal absorption wavelength) [1]: 1170 nm
- Near infrared absorbing property [1]: A (Amax was 1,150 nm or more)
- Solubility in solvent [2]: A (1 g or more of the compound was stably dissolved in 300 g of MEK)
- Heat stability of resin composition [3]: A (absorbance reduction rate of Amax was less than 5%)

Compound: N#Cc1ccc(N(c2ccc([N+](=C3C=CC(=[N+](c4ccc(N(c5ccc(C#N)c(F)c5)c5ccc(C#N)c(F)c5)cc4)c4ccc(N(c5ccc(C#N)c(F)c5)c5ccc(C#N)c(F)c5)cc4)C=C3)c3ccc(N(c4ccc(C#N)c(F)c4)c4ccc(C#N)c(F)c4)cc3)cc2)c2ccc(C#N)c(F)c2)cc1F [A-19]
- λmax (maximal absorption wavelength) [1]: 1165 nm
- Near infrared absorbing property [1]: A (Amax was 1,150 nm or more)
- Solubility in solvent [2]: A (1 g or more of the compound was stably dissolved in 300 g of MEK)
- Heat stability of resin composition [3]: A (absorbance reduction rate of Amax was less than 5%)

Compound: COc1cc(C)c(N(c2ccc([N+](=C3C=CC(=[N+](c4ccc(N(c5c(C)cc(OC)cc5C)c5c(C)cc(OC)cc5C)cc4)c4ccc(N(c5c(C)cc(OC)cc5C)c5c(C)cc(OC)cc5C)cc4)C=C3)c3ccc(N(c4c(C)cc(OC)cc4C)c4c(C)cc(OC)cc4C)cc3)cc2)c2c(C)cc(OC)cc2C)c(C)c1.[O-][Cl+3]([O-])([O-])[O-].[O-][Cl+3]([O-])([O-])[O-] [A-22]
- λmax (maximal absorption wavelength) [1]: 1308 nm
- Near infrared absorbing property [1]: A (Amax was 1,150 nm or more)
- Solubility in solvent [2]: A (1 g or more of the compound was stably dissolved in 300 g of MEK)
- Heat stability of resin composition [3]: A (absorbance reduction rate of Amax was less than 5%)

Compound: COC(=O)c1cccc(N(c2ccc([N+](=C3C=CC(=[N+](c4ccc(N(c5cccc(C(=O)OC)c5)c5cccc(C(=O)OC)c5)cc4)c4ccc(N(c5cccc(C(=O)OC)c5)c5cccc(C(=O)OC)c5)cc4)C=C3)c3ccc(N(c4cccc(C(=O)OC)c4)c4cccc(C(=O)OC)c4)cc3)cc2)c2cccc(C(=O)OC)c2)c1.[O-][Cl+3]([O-])([O-])[O-].[O-][Cl+3]([O-])([O-])[O-] [A-26]
- λmax (maximal absorption wavelength) [1]: 1232 nm
- Near infrared absorbing property [1]: A (Amax was 1,150 nm or more)
- Solubility in solvent [2]: A (1 g or more of the compound was stably dissolved in 300 g of MEK)
- Heat stability of resin composition [3]: A (absorbance reduction rate of Amax was less than 5%)

Compound: Cc1ccc(N(c2ccc(C)cc2)c2ccc([N+](=C3C=CC(=[N+](c4ccc(N(c5ccc(C)cc5)c5ccc(C)cc5)cc4)c4ccc(N(c5ccc(C)cc5)c5ccc(C)cc5)cc4)C=C3)c3ccc(N(c4ccc(C)cc4)c4ccc(C)cc4)cc3)cc2)cc1 [A-28]
- λmax (maximal absorption wavelength) [1]: 1209 nm
- Near infrared absorbing property [1]: A (Amax was 1,150 nm or more)
- Solubility in solvent [2]: A (1 g or more of the compound was stably dissolved in 300 g of MEK)
- Heat stability of resin composition [3]: A (absorbance reduction rate of Amax was less than 5%)

Compound: Cc1ccc(N(c2ccc(C)cc2)c2ccc([N+](=C3C=CC(=[N+](c4ccc(N(c5ccc(C)cc5)c5ccc(C)cc5)cc4)c4ccc(N(c5ccc(C)cc5)c5ccc(C)cc5)cc4)C=C3)c3ccc(N(c4ccc(C)cc4)c4ccc(C)cc4)cc3)cc2)cc1.F[B-](F)(F)F.F[B-](F)(F)F [A-29]
- λmax (maximal absorption wavelength) [1]: 1209 nm
- Near infrared absorbing property [1]: A (Amax was 1,150 nm or more)
- Solubility in solvent [2]: A (1 g or more of the compound was stably dissolved in 300 g of MEK)
- Heat stability of resin composition [3]: A (absorbance reduction rate of Amax was less than 5%)

Compound: Cc1ccc(N(c2ccc(C)cc2)c2ccc([N+](=C3C=CC(=[N+](c4ccc(N(c5ccc(C)cc5)c5ccc(C)cc5)cc4)c4ccc(N(c5ccc(C)cc5)c5ccc(C)cc5)cc4)C=C3)c3ccc(N(c4ccc(C)cc4)c4ccc(C)cc4)cc3)cc2)cc1.F[P-](F)(F)(F)(F)F.F[P-](F)(F)(F)(F)F [A-30]
- λmax (maximal absorption wavelength) [1]: 1209 nm
- Near infrared absorbing property [1]: A (Amax was 1,150 nm or more)
- Solubility in solvent [2]: A (1 g or more of the compound was stably dissolved in 300 g of MEK)
- Heat stability of resin composition [3]: A (absorbance reduction rate of Amax was less than 5%)

Compound: Cc1ccc(N(c2ccc(C)cc2)c2ccc([N+](=C3C=CC(=[N+](c4ccc(N(c5ccc(C)cc5)c5ccc(C)cc5)cc4)c4ccc(N(c5ccc(C)cc5)c5ccc(C)cc5)cc4)C=C3)c3ccc(N(c4ccc(C)cc4)c4ccc(C)cc4)cc3)cc2)cc1.O=S(=O)([C-](S(=O)(=O)C(F)(F)F)S(=O)(=O)C(F)(F)F)C(F)(F)F.O=S(=O)([C-](S(=O)(=O)C(F)(F)F)S(=O)(=O)C(F)(F)F)C(F)(F)F [A-34]
- λmax (maximal absorption wavelength) [1]: 1211 nm
- Near infrared absorbing property [1]: A (Amax was 1,150 nm or more)
- Solubility in solvent [2]: A (1 g or more of the compound was stably dissolved in 300 g of MEK)
- Heat stability of resin composition [3]: A (absorbance reduction rate of Amax was less than 5%)
